Assay results reported in patent US20260007684A1, “AMIDE DERIVATIVES FOR INHIBITING NLRP3 AND USES THEREOF” (Ventus Therapeutics U.S., Inc., priority 2023, published 2026).

What follows are compounds tested against human NLRP3 (Homo sapiens (Human), UniProt Q96P20) (assay: Scintillation Proximity (SPA) NLRP3 Assay: displacement of 3H-MCC950). Settings: SPA IC50, displacement of 3H-MCC950.
Type: binding

Chain of human NLRP3 (Q96P20 whole entry): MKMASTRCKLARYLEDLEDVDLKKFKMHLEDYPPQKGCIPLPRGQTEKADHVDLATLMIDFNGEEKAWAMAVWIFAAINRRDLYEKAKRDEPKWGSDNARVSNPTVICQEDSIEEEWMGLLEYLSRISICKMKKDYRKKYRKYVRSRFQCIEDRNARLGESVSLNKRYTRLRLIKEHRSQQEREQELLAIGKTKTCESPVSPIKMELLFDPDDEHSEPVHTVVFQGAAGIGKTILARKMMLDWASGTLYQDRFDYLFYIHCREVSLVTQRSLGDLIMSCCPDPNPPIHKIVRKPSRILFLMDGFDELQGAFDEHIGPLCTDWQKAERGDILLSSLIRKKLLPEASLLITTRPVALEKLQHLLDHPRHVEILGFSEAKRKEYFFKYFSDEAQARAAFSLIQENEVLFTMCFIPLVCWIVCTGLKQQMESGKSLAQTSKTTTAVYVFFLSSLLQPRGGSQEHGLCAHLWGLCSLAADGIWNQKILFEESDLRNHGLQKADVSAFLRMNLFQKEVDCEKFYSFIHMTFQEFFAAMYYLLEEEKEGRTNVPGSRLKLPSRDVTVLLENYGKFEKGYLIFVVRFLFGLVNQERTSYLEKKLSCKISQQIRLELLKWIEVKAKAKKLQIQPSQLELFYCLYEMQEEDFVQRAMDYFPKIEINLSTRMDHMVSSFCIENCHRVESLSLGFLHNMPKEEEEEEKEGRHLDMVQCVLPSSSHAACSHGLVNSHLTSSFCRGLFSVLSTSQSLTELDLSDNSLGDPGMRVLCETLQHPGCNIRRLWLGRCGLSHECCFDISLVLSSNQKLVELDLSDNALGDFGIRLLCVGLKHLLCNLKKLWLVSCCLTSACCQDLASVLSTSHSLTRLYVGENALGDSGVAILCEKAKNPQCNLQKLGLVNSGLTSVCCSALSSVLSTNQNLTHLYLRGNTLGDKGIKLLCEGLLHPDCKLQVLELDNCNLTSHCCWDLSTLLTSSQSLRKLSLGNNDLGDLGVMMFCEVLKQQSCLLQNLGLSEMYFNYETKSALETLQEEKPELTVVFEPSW

SMILES | IC50 [µM]
O=C(N[C@H]1CCC[C@@H]2CC[C@H]1N2c1nnn[nH]1)C1(c2ccc(Cl)cc2)CC1 (single isomer, unassigned) [9B*, N-(9-(1H-tetrazol-5-yl)-9-azabicyclo[4.2.1]nonan-2-yl)-1-(4-chlorophenyl)cyclopropane-1-carboxamide] | > 100

Same assay, conditions: displacement of 3H-MCC950; read-out: SPA IC50

SMILES | IC50 [µM]
C[C@H]1C[C@@H](NC(=O)C2(c3ccc(C(F)(F)F)cc3F)CC2)[C@@H]2CC[C@H]1N2c1nnn[nH]1 [84C*, 1-(2-fluoro-4-(trifluoromethyl)phenyl)-N-((1S,2R,4S,5R)-4-methy1-8-(1H-tetrazol-5-yl)-8-azabicyclo[3.2.1]octan-2-yl)cyclopropane-1-carboxamide] | > 100
C[C@H]1C[C@H](NC(=O)C2(c3ccc(OC(F)F)cc3)CC2)[C@@H]2CC[C@H]1N2c1nnn[nH]1 (single isomer, unassigned) [35D*] | 10 to 50
C[C@@H]1C[C@H](NC(=O)C2(c3ccc(OC(F)F)cc3)CC2)[C@@H]2CC[C@H]1N2c1nnn[nH]1 (single isomer, unassigned) [35H*] | > 100
C[C@H]1C[C@@H](NC(=O)C2(c3ccc(OC(F)F)cc3)CC2)[C@@H]2CC[C@H]1N2c1nnn[nH]1 (single isomer, unassigned) [35C*] | > 100
C[C@H]1C[C@@H](NC(=O)C2(c3ccc(C(F)F)cc3)CC2)[C@@H]2CC[C@H]1N2c1nnn[nH]1 [86C*, 1-(4-(difluoromethyl)phenyl)-N-((1S,2R,4S,5R)-4-methyl-8-(1H-tetrazol-5-yl)-8-azabicyclo[3.2.1]octan-2-yl)cyclopropane-1-carboxamide] | > 100
C[C@H]1C[C@H](NC(=O)C2(c3ccc(OC(F)(F)F)cc3)CC2)[C@@H]2CC[C@H]1N2c1nnn[nH]1 [82D*, N-((1S,2S,4S,5R)-4-methy1-8-(1H-tetrazol-5-yl)-8-azabicyclo[3.2.1]octan-2-yl)-1-(4-(trifluoromethoxy)phenyl)cyclopropane-1-carboxamide] | > 100
C[C@@H]1C[C@H](NC(=O)C2(c3ccc(C(F)(F)F)cc3F)CC2)[C@H]2CC[C@@H]1N2c1nnn[nH]1 [84B*, 1-(2-fluoro-4-(trifluoromethyl)phenyl)-N-((1R,2S,4R,5S)-4-methyl-8-(1H-tetrazol-5-yl)-8-azabicyclo[3.2.1]octan-2-yl)cyclopropane-1-carboxamide] | 10 to 50
C[C@H]1C[C@@H](NC(=O)C2(c3ccc(C(F)(F)F)cc3)CC2)[C@@H]2CC[C@H]1N2c1nnn[nH]1 [79C*, N-((1S,2R,4S,5R)-4-methy1-8-(1H-tetrazol-5-yl)-8-azabicyclo[3.2.1]octan-2-yl)-1-(4-(trifluoromethyl)phenyl)cyclopropane-1-carboxamide] | 10 to 50
C[C@@H]1C[C@H](NC(=O)C2(c3ccc(C4CC4(F)F)cc3)CC2)[C@H]2CC[C@@H]1N2c1nnn[nH]1 (single isomer, unassigned) [37B*] | 10 to 50
C[C@H]1C[C@@H](NC(=O)C2(c3ccc(OC(F)F)cc3O)CC2)[C@@H]2CC[C@H]1N2c1nnn[nH]1 [43C*, N-((1S,2R,4S,5R)-4-methy1-8-(1H-tetrazol-5-yl)-8-azabicyclo[3.2.1]octan-2-yl)-1-(4-(difluoromethoxy)-2-hydroxyphenyl)cyclopropane-1-carboxamide] | > 100
O=C(N[C@H]1CC[C@@H]2CC[C@H]1N2c1nnn[nH]1)C1(c2ccc(C(F)(F)F)cc2O)CC1 (single isomer, unassigned) [34B*] | 1 to 10
C[C@H]1C[C@H](NC(=O)C2(c3ccc(C4CC4)cc3)CC2)[C@@H]2CC[C@H]1N2c1nnn[nH]1 [81D*] | 10 to 50
C[C@H]1C[C@@H](NC(=O)C2(c3ccc(OC(F)(F)F)cc3)CC2)[C@@H]2CC[C@H]1N2c1nnn[nH]1 [82C*, N-((1S,2R,4S,5R)-4-methyl-8-(1H-tetrazol-5-yl)-8-azabicyclo[3.2.1]octan-2-yl)-1-(4-(trifluoromethoxy)phenyl)cyclopropane-1-carboxamide] | > 100
C[C@@H]1C[C@H](NC(=O)C2(c3ccc(C4CC4)cc3)CC2)[C@H]2CC[C@@H]1N2c1nnn[nH]1 [81B*, 1-(4-cyclopropylphenyl)-N-((1R,2S,4R,5S)-4-methyl-8-(1H-tetrazol-5-yl)-8-azabicyclo[3.2.1]octan-2-yl)cyclopropane-1-carboxamide] | 50 to 100
C[C@H]1C[C@H](NC(=O)C2(c3ccc(SC(F)F)cc3)CC2)[C@@H]2CC[C@H]1N2c1nnn[nH]1 [85D*, 1-(4-((difluoromethyl)thio)phenyl)-N-((1S,2S,4S,5R)-4-methy1-8-(1H-tetrazol-5-yl)-8-azabicyclo[3.2.1]octan-2-yl)cyclopropane-1-carboxamide] | > 100

The remaining lines, values ahead:

IC50 [µM] | SMILES
10 to 50 | C[C@H]1CCN(c2nnn[nH]2)C[C@@H](NC(=O)C2(c3cc(F)c(Cl)cc3O)CC2)C1 (single isomer, unassigned) [29D*, 1-(4-chloro-5-fluoro-2-hydroxyphenyl)-N-(5-methyl-1-(1H-tetrazol-5-yl)azepan-3-yl)cyclopropane-1-carboxamide]
1 to 10 | C[C@@H]1CCN(c2nnn[nH]2)C[C@@H](NC(=O)C2(c3cnc(Cl)cc3O)CC2)C1 (single isomer, unassigned) [99B*]
1 to 10 | C[C@@H]1CCN(c2nnn[nH]2)C[C@@H](NC(=O)C2(c3ccc(C(F)(F)F)c(F)c3)CC2)C1 (single isomer, unassigned) [66B*]
10 to 50 | C[C@H]1CCN(c2nnn[nH]2)C[C@@H](NC(=O)C2(c3ccc(Cl)cc3)CC2)C1 (single isomer, unassigned) [12D*, 1-(4-chlorophenyl)-N-(5-methyl-1-(1H-tetrazol-5-yl)azepan-3-yl)cyclopropane-1-carboxamide]
50 to 100 | O=C(N[C@@H]1CN(c2nnn[nH]2)CCC(F)(F)C1)C1(c2ccc(Cl)cc2)CC1 (single isomer, unassigned) [53B*]
10 to 50 | C[C@H]1CCN(c2nnn[nH]2)C[C@@H](NC(=O)C2(c3ccc(C4CCC4)cc3)CC2)C1 (single isomer, unassigned) [8D*, 1-(4-cyclobutylphenyl)-N-(5-methyl-1-(1H-tetrazol-5-yl)azepan-3-yl)cyclopropane-1-carboxamide]
10 to 50 | Cc1ccc(C2(C(=O)N[C@@H]3C[C@@H](C)CCN(c4nnn[nH]4)C3)CC2)c(O)c1F (single isomer, unassigned) [22C*, 1-(3-fluoro-2-hydroxy-4-methylphenyl)-N-(5-methyl-1-(1H-tetrazol-5-yl)azepan-3-yl)cyclopropane-1-carboxamide]
50 to 100 | Cc1ccc(C2(C(=O)N[C@H]3C[C@H](C)CCN(c4nnn[nH]4)C3)CC2)cc1 (single isomer, unassigned) [71B*]
> 100 | C[C@H]1CCN(c2nnn[nH]2)C[C@@H](NC(=O)C2(c3ccc(Cl)nc3O)CC2)C1 (single isomer, unassigned) [100D*]
1 to 10 | C[C@H]1CCN(c2nnn[nH]2)C[C@H](NC(=O)C2(c3ccc(C(F)(F)F)cc3)CC2)C1 (single isomer, unassigned) [61B*]
1 to 10 | Cc1c(Cl)ccc(C2(C(=O)N[C@H]3C[C@H](C)CCN(c4nnn[nH]4)C3)CC2)c1O (single isomer, unassigned) [21B*, 1-(4-chloro-2-hydroxy-3-methylphenyl)-N-(5-methyl-1-(1H-tetrazol-5-yl)azepan-3-yl)cyclopropane-1-carboxamide]
1 to 10 | C[C@@H]1CCN(c2nnn[nH]2)C[C@@H](NC(=O)C2(c3ccc(Br)cc3)CC2)C1 (single isomer, unassigned) [59B*]
1 to 10 | C[C@@H]1CCN(c2nnn[nH]2)C[C@@H](NC(=O)C2(c3ccc(OC(F)F)c(F)c3)CC2)C1 (single isomer, unassigned) [73B*]
10 to 50 | C[C@@H]1C[C@@H](NC(=O)C2(c3ccc(Cl)cc3)CC2)CN(c2nnn[nH]2)C1 [Compound 46C, 1-(4-chlorophenyl)-N-[(3R,5R)-5-methyl-1-(1H-tetrazol-5-yl)-3-piperidyl]cyclopropanecarboxamide]
> 100 | C[C@H]1CCN(c2nnn[nH]2)C[C@H](NC(=O)C2(c3ccc(OC(F)(F)F)cc3)CC2)C1 (single isomer, unassigned) [57C*]
10 to 50 | C[C@H]1CCN(c2nnn[nH]2)C[C@@H](NC(=O)C2(c3cnc(Cl)cc3O)CC2)C1 (single isomer, unassigned) [99D*]
1 to 10 | C[C@@H]1CCN(c2nnn[nH]2)C[C@@H](NC(=O)C2(c3ccc(OC(F)F)cc3F)CC2)C1 (single isomer, unassigned) [3B*]
50 to 100 | O=C(NC1CC(C2CC2)CN(c2nnn[nH]2)C1)C1(c2ccc(Cl)cc2)CC1 (single isomer, unassigned) [Rac-13B*/C*, 1-(4-chlorophenyl)-N-(5-cyclopropyl-1-(1H-tetrazol-5-yl)piperidin-3-yl)cyclopropane-1-carboxamide]
1 to 10 | C[C@@H]1CCN(c2nnn[nH]2)C[C@@H](NC(=O)C2(c3ccc(OC(F)(F)F)cc3)CC2)C1 (single isomer, unassigned) [57B*]
> 100 | C[C@H]1CCN(c2nnn[nH]2)C[C@H](NC(=O)C2(c3ccc(C(F)(F)F)c(F)c3)CC2)C1 (single isomer, unassigned) [66C*]
10 to 50 | C[C@@H]1CCN(c2nnn[nH]2)C[C@@H](NC(=O)C2(c3ccc(C(F)(F)F)c(OC(F)F)c3)CC2)C1 (single isomer, unassigned) [54B*]
> 100 | C[C@@]1(NC(=O)C2(c3ccc(Cl)cc3)CC2)CCCN(c2nnn[nH]2)C1 (single isomer, unassigned) [11A*, 1-(4-chlorophenyl)-N-(3-methyl-1-(1H-tetrazol-5-yl)piperidin-3-yl)cyclopropane-1-carboxamide]
10 to 50 | CC1(C)C[C@H](NC(=O)C2(c3ccc(Cl)cc3O)CC2)CN(c2nnn[nH]2)C1 (single isomer, unassigned) [42B*]
10 to 50 | O=C(N[C@H]1CCCCCN(c2nnn[nH]2)C1)C1(c2ccc(Cl)cc2)CC1 (single isomer, unassigned) [14B*, N-(1-(1H-tetrazol-5-yl)azocan-3-yl)-1-(4-chlorophenyl)cyclopropane-1-carboxamide]
